# Values of other authors, collected in patent US8877445B2, “Methods for identification of tumor phenotype and treatment” (Intelligent Oncotherapeutics, Inc., priority 2008, dated 2014).
# Where no end group is shown, it is not given here. [ ]: non-standard residue; d: D form.
# What was measured:
# [1] = test system: patients
# [2] = test system: patients; details: clinical phase I trial
# [3] = test system: melanoma cells; details: in vitro (Ghosh et al. 2005)
# [4] = test system: cultured human tumor cells
# [5] = target: T1, Aurora A (Homo sapiens, UniProt O14965); details: in vitro
# [6] = target: T1, Aurora A; details: cultured cells
# [7] = test system: subcutaneous human tumor xenografts; details: for mitotic accumulation and apoptosis in xenografts / tolerability of efficacious doses: mouse, in vivo; for tolerability of efficacious doses: po; for tumor growth: oral administration (MLN8237: repeated) at well tolerated doses
# [8] = in vivo
# [9] = target: aurora B (Homo sapiens, UniProt Q96GD4); details: at efficacious concentrations
# [10] = test system: cells; details: reviewed in Agnese et al. 2007
# [11] = test system: leukemia, colon and pancreatic tumors
# [12] = test system: human tumor types; details: in vivo, wide range of human tumor types (Pan et al. 2008)
# [13] = test system: patients; details: phase I; dose levels well below those which cause dose-limiting toxicity (ASCO 2008 abstract #3009)
# [14] = test system: solid tumors
# [15] = target: T2, FOXM1 (Homo sapiens, UniProt Q08050)
# T2 sequence (Q08050 1-763): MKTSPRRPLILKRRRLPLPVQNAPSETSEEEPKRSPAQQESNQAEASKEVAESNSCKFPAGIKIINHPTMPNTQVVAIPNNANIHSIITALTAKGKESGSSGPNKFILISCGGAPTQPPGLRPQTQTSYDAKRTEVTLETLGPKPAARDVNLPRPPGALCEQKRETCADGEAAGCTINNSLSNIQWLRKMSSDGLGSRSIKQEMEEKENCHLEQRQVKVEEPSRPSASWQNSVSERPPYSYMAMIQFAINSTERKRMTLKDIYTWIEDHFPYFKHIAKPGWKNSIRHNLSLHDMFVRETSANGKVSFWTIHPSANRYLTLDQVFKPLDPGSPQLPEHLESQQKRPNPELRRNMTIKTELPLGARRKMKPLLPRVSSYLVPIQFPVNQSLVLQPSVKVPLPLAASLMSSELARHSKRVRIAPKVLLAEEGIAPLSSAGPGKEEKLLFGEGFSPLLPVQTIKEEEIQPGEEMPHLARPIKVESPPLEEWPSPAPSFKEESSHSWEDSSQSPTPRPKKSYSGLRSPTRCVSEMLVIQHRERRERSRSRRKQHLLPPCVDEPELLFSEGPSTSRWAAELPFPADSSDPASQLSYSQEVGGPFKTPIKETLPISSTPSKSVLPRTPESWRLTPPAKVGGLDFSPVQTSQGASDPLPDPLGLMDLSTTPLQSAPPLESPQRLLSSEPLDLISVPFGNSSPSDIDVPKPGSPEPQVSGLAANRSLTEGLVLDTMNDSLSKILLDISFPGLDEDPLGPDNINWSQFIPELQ
# T1 sequence (O14965 whole entry): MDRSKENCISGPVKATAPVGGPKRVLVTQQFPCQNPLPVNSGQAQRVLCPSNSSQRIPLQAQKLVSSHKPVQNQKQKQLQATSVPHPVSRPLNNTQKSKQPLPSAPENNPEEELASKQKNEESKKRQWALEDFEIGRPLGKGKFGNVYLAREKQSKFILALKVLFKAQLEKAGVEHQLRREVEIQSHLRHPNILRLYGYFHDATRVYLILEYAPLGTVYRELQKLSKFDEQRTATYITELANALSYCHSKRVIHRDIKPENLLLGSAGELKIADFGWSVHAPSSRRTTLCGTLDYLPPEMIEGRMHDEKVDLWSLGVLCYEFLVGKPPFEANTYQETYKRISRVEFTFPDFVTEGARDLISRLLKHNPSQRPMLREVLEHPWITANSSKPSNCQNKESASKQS
# Sequence of aurora B (Q96GD4 whole entry): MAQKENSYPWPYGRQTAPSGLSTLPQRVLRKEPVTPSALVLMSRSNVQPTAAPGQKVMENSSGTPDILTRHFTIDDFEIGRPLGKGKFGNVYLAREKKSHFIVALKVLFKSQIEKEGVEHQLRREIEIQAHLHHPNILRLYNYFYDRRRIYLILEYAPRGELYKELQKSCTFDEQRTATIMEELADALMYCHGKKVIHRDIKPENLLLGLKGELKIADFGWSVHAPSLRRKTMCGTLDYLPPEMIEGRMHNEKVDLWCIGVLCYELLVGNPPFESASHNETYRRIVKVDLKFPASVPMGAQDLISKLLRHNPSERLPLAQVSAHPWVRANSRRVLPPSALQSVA
compound,measurement,setting,value
CCN(CCCOc1ccc2c(Nc3cc(CC(=O)Nc4cccc(F)c4)n[nH]3)ncnc2c1)CCOP(=O)(O)O [AD1152],toxicity,[1]; phase I,neutropenia as the only significant toxicity
same,patients with significant disease stabilization,[1]; phase I (ASCO 2008 abstract #3008),5 of 12
Cc1cc(Nc2ncc(F)c(NC3C4C=CC(C4)C3C(N)=O)n2)ccc1N1CCN(C)CC1 (stereo not shown) [AS703569],toxicities,[2],tolerable toxicities
C=CCc1ccc(O)c(OC)c1 [Eugenol],E2F1 targeting and killing of melanoma cells,[3],target E2F1 and kill melanoma cells
O=C(O)c1ccc(Nc2ncc3c(n2)-c2ccc(Cl)cc2C(c2c(F)cccc2F)=NC3)cc1 [MLN8054],effects on cultured human tumor cells,[4],G2/M accumulation and spindle defects and inhibits proliferation
same,Aurora A kinase activity,[5],inhibits recombinant Aurora A kinase activity
same,selectivity Aurora A over Aurora B,[6],selective for Aurora A over the family member Aurora B
same,duration of tumor growth inhibition,[7]; after end of treatment,sustained after discontinuing MLN8054 treatment
same,mitotic accumulation and apoptosis in xenografts,[7],induced mitotic accumulation and apoptosis
same,tolerability of efficacious doses,[7],well tolerated doses
same,tumor growth,[7],dramatically inhibited
same,toxicities,[2],tolerable toxicities
COc1cc(Nc2ncc3c(n2)-c2ccc(Cl)cc2C(c2c(F)cccc2OC)=NC3)ccc1C(=O)O [MLN8237],effects on cultured human tumor cells,[4],"mitotic spindle abnormalities, mitotic accumulation, inhibition of cell proliferation and apoptosis"
same,pharmacokinetic profile,[8],favorable pharmacokinetic profile
same,oral bioavailability,[8]; po,orally bioavailable
same,aurora B inhibition,[9],did not appreciably inhibit aurora B
same,mitotic accumulation and apoptosis in xenografts,[7],induced mitotic accumulation and apoptosis
same,tolerability of efficacious doses,[7],well tolerated doses
same,tumor growth,[7],dramatic tumor growth inhibition in all tumor models evaluated
same,accumulation of mitotic cells,[7]; single oral administration,time dependent accumulation of mitotic cells
CC(=O)NCC(=O)N1[C@@H]2CC[C@H]1c1ccc(Nc3ncc(C(F)(F)F)c(NC4CCC4)n3)cc12 [PF-03814735],toxicities,[2],tolerable toxicities
CO[C@@H](C(=O)N1Cc2n[nH]c(NC(=O)c3ccc(N4CCN(C)CC4)cc3)c2C1)c1ccccc1 [PHA-739358],toxicities,[2],tolerable toxicities
O=C(Nc1cccc(Cl)c1)Nc1ncc(CCNc2ncnc3ccsc23)s1 [SNS-314],toxicities,[2],tolerable toxicities
Cc1cc(Nc2cc(N3CCN(C)CC3)nc(Sc3ccc(NC(=O)C4CC4)cc3)n2)[nH]n1 [VX-680],"effect on cell proliferation, spindle formation, DNA copies, cell death",[10],"block cell proliferation, disrupt bipolar spindle formation, and lead to accumulation of cells with 4N or greater numbers of chromosomal DNA copies and eventual cell death"
same,tolerability of efficacious doses,[11]; xenograft models,well-tolerated doses
same,tumor regression,[11]; xenograft models,"regression of leukemia, colon and pancreatic tumors"
same,tumor growth,[11]; xenograft models (Harrington et al. 2004),substantial inhibition of tumor growth
same,cell-cycle progression and apoptosis,[12],blocks cell-cycle progression and induces apoptosis
same,patients who achieved stable disease,[13],three of 16
COCC[n+]1c2c(n(Cc3cnccn3)c1C)C(=O)c1ccccc1C2=O.[Br-] [YM155],toxicity,[14]; phase I,tolerable toxicity
same,clinical activity,"[14]; phase I (2008 abstracts #3536, 5135, 8538)",clinical activity in solid tumors
COc1cc2c(Nc3ccc(NC(=O)c4ccccc4)cc3)ncnc2cc1OCCCN1CCOCC1 [ZM 447439],toxicities,[2],tolerable toxicities
"(D-Arg)9-p19ARF 26-44: small peptide that blocks FOXM1; rrrrrrrrrrKFVRSRRPRTAS-CALAFVN containing nine D-Arg residues at the amino terminus ([dR][dR][dR][dR][dR][dR][dR][dR][dR]KFVRSRRPRTASCALAFVN; not fully specified; printed as rrrrrrrrrrKFVRSRRPRTAS-CALAFVN; UniProt Q64364 26-44, looked up, fragment)",action on FOXM1,[15]; Gusarova et al. 2007,blocks FOXM1
same,effects in vitro and in vivo,[15]; both in vitro and in vivo,"growth inhibition, reduction in levels of survivin, aurora B kinase, and PLK1 as well as inducing apoptosis"
